In ChEMBL document CHEMBL1128906, “Synthesis and NK-2 antagonist effect of 1,6-diphenyl-pyrazolo [3,4-d]-thiazolo[3,2-a]4H-pyrimidin-4-one” (Bioorg Med Chem Lett, 1996):
Calls of active or inactive are those of the source. No cut-off for these calls is given here.

Key:
Assay type in all cases: functional
Substance-K receptor = molecular target: T1, Substance-K receptor (Cavia porcellus, UniProt Q64077); experiment: Compound was evaluated for NK-2 receptor antagonistic activity in the guinea pig trachea; settings: read-out: pA2 (converted)
T1 sequence (Q64077 whole entry): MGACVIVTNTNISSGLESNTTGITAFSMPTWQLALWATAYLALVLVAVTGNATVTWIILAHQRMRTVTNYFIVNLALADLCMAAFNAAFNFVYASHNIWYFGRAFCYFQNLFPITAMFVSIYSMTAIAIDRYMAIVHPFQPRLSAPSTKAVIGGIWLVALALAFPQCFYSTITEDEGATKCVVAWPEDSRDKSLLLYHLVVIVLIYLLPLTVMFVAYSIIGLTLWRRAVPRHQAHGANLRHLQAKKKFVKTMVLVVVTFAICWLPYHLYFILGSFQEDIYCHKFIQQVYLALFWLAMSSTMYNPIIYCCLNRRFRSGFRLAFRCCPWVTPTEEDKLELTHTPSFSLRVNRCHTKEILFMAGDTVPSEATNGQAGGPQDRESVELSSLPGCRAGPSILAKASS

[1] = molecular target: T2, Neuromedin-K receptor (Cavia porcellus) (UniProt P30098); experiment: Compound was evaluated for NK-3 receptor antagonistic activity in the guinea pig trachea; Inactive
T2 sequence (whole entry): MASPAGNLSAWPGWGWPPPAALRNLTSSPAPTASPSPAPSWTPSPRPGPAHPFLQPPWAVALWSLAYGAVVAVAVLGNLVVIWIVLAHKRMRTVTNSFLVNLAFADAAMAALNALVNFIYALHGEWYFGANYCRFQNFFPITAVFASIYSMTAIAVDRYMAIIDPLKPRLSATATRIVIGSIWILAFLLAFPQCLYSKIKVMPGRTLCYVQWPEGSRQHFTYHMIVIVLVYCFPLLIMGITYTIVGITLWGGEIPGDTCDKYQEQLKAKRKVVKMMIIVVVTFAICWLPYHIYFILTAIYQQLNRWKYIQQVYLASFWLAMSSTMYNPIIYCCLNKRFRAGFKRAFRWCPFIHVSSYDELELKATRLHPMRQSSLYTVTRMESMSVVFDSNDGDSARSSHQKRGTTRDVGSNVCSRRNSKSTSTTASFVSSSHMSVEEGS

[2] = molecular target: Substance-P receptor (Cavia porcellus) (UniProt P30547); experiment: Compound was evaluated for NK-1 receptor antagonistic activity in the guinea pig trachea; Inactive
Sequence of Substance-P receptor (Cavia porcellus) (P30547 whole entry): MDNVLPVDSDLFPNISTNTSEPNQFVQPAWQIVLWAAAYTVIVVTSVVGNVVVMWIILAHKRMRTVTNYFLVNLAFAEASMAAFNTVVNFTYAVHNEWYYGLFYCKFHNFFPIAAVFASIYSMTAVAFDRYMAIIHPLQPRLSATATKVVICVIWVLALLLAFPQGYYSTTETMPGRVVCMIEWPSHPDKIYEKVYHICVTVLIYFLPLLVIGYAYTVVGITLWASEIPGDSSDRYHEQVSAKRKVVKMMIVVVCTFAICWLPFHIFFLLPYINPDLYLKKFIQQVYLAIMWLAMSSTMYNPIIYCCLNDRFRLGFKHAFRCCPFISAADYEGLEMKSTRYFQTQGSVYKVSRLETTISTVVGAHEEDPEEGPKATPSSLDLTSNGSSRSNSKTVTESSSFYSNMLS

- Kb (Substance-K receptor): 50.1 nM
- pA2 [1]: inactive
- pA2 [2]: inactive
SMILES: O=c1c2cnn(-c3ccccc3)c2nc2scc(-c3ccccc3)n12
